Source: ChEMBL document CHEMBL5120850, “Conformational adjustment overcomes multiple drug-resistance mutants of tropomyosin receptor kinase” (Eur J Med Chem, 2022)

Columns and labels:
[1] = tested on: BaF3; assay: Antitumor activity against mouse Ba/F3 cells expressing in […] wildtype allografted in BALB/cA mouse assessed as reduction in tumor growth at 30 mg/kg twice daily for 12 to 14 days relative to control; format: functional; details: time 12-14 day, read-out: TGI
[2] = tested on: BaF3; assay: Antitumor activity against mouse Ba/F3 cells expressing in ETV6-TRKC-G623R mutant allografted in BALB/cA mouse assessed as reduction in tumor growth at 30 mg/kg twice daily for 12 to 14 days relative to control; details: BaF3, read-out: TGI

Molecule `O=C(Nc1cnn2ccc(N3CCC[C@@H]3c3cc(F)ccc3F)nc12)N1CC[C@H](O)C1` [LAROTRECTINIB] has an inhibition in vivo at 30 mg/kg [1] of 30%.
For `C[C@@H]1CCc2ncc(F)cc2[C@H]2CCCN2c2ccn3ncc(c3n2)C(=O)N1` [SELITRECTINIB], the inhibition in vivo at 30 mg/kg [2] was 73%.
